According to patent US20190328691A1, “ANTIBIOTIC THERAPY” (Boulos & Cooper Pharmaceuticals Pty Ltd, priority 2015, published 2019):

What was measured:
MRSA strains = conditions: cited from earlier work
[1] = test system: Staphylococcus aureus (ATCC 29213); test: Checkerboard combination / MIC assay with S. aureus ATCC 29213; assay type: cell-based
Summary of the method: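 CLSI broth microdilution checkerboard in CAMHB, final inoculum 5×10^5 CFU/mL, 2% DMSO. Ramizol or Chlopam (11-point 2-fold) crossed with commercial antibiotics (7-point), each starting at 4× MIC; synergy assessed by FIC index (sum of MIC-in-combination/MIC-alone ratios; ≤0.5 synergy, >4 antagonism).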

[2] = test system: Staphylococcus aureus (BAA-1717); test: Checkerboard combination / MIC assay with S. aureus BAA-1717 (MRSA); assay type: cell-based; conditions: for Effect of individual antibiotic combinations: S. aureus BAA-1717
Summary of the method: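 CLSI broth microdilution checkerboard in CAMHB (5×10^5 CFU/mL, 2% DMSO final). Ramizol or Chlopam was tested in 11-point two-fold series against 7-point antibiotic titrations, starting at 4× MIC.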

CN[C@H](CC(C)C)C(=O)N[C@H]1C(=O)N[C@@H](CC(N)=O)C(=O)N[C@H]2C(=O)N[C@H]3C(=O)N[C@H](C(=O)N[C@H](C(=O)O)c4cc(O)cc(O)c4-c4cc3ccc4O)[C@H](O)c3ccc(c(Cl)c3)Oc3cc2cc(c3O[C@@H]2O[C@H](CO)[C@@H](O)[C@H](O)[C@H]2O[C@H]2C[C@](C)(N)[C@H](O)[C@H](C)O2)Oc2ccc(cc2Cl)[C@H]1O [Vancomycin]
1 µg/mL: MIC of antibiotic in combination with Chlopam ([1]; Chlopam 0.003906 μg/mL, S. aureus ATCC 29213) | MIC of antibiotic in combination with Chlopam ([1]; Chlopam 0.0078125 μg/mL, S. aureus ATCC 29213) | MIC of antibiotic in combination with Chlopam ([1]; Chlopam 0.015625 μg/mL, S. aureus ATCC 29213) | MIC of antibiotic in combination with Ramizol ([1]; Ramizol 0.015625 μg/mL, S. aureus ATCC 29213) | MIC of antibiotic in combination with Ramizol ([1]; Ramizol 0.03125 μg/mL, S. aureus ATCC 29213) | MIC of antibiotic in combination with Ramizol ([1]; Ramizol 0.0625 μg/mL, S. aureus ATCC 29213) | MIC of antibiotic in combination with Ramizol ([1]; Ramizol 0.125 μg/mL, S. aureus ATCC 29213) | MIC ([1]; Staphylococcus aureus, ATCC29213, read-out: MIC of antibiotic alone) | MIC of antibiotic alone ([1]; Table 7, checkerboard series with Ramizol, S. aureus ATCC 29213) | MIC of antibiotic in combination with Chlopam ([2]; Chlopam 0.001953 μg/mL, S. aureus ATCC BAA-1717) | MIC of antibiotic in combination with Chlopam ([2]; Chlopam 0.003906 μg/mL, S. aureus ATCC BAA-1717) | MIC of antibiotic in combination with Chlopam ([2]; Chlopam 0.0078125 μg/mL, S. aureus ATCC BAA-1717) | MIC of antibiotic in combination with Chlopam ([2]; Chlopam 0.015625 μg/mL, S. aureus ATCC BAA-1717) | MIC of antibiotic in combination with Ramizol ([2]; Ramizol 0.015625 μg/mL, S. aureus ATCC BAA-1717) | MIC of antibiotic in combination with Ramizol ([2]; Ramizol 0.03125 μg/mL, S. aureus ATCC BAA-1717) | MIC of antibiotic in combination with Ramizol ([2]; Ramizol 0.0625 μg/mL, S. aureus ATCC BAA-1717) | MIC of antibiotic in combination with Ramizol ([2]; Ramizol 0.125 μg/mL, S. aureus ATCC BAA-1717) | MIC ([2]; Staphylococcus aureus, ATCC BAA-1717 / BAA-1717, read-out: MIC of antibiotic alone) | MIC of antibiotic alone ([2]; Table 7, checkerboard series with Ramizol, S. aureus ATCC BAA-1717)
0.031 µg/mL: MIC of antibiotic in combination with Chlopam ([2]; Chlopam 0.5 μg/mL, S. aureus ATCC BAA-1717) | MIC of antibiotic in combination with Ramizol ([2]; Ramizol 4 μg/mL, S. aureus ATCC BAA-1717)
≥ 32 µg/mL: MIC (MRSA strains; MRSA strains fully resistant to vancomycin)
additive effect: Effect of individual antibiotic combinations ([1]; Chlopam and Vancomycin: 0.003901 and 1, 0.0078125 and 1, 0.015625 and 1, 0.125 and 0.5, 0.25 and 0.5 μg/mL, S. aureus ATCC 29213) | Effect of individual antibiotic combinations ([1]; Ramizol and Vancomycin: 0.015625 and 1, 0.03125 and 1, 0.0625 and 1, 0.125 and 1 μg/mL, S. aureus ATCC 29213) | Effect of the combinations with Chlopam (by mean FICI) ([1]; labelled antibiotic + Chlopam, S. aureus ATCC 29213) | Effect of individual antibiotic combinations ([2]; Chlopam and Vancomycin: 0.001953 and 1, 0.003901 and 1, 0.0078125 and 1, 0.015625 and 1 μg/mL) | Effect of individual antibiotic combinations ([2]; Ramizol and Vancomycin: 0.015625 and 1, 0.03125 and 1, 0.0625 and 1, 0.125 and 1, 4 and 0.031 μg/mL)
0.5 µg/mL: MIC of antibiotic in combination with Chlopam ([1]; Chlopam 0.125 μg/mL, S. aureus ATCC 29213) | MIC of antibiotic in combination with Chlopam ([1]; Chlopam 0.25 μg/mL, S. aureus ATCC 29213)
0.8: FICI of combination with Chlopam ([1]; Chlopam 0.125 μg/mL + labelled antibiotic at MIC of same line, S. aureus ATCC 29213)
1.2: mean FICI of combination with Ramizol ([1]; labelled antibiotic + Ramizol, mean of all pairwise combinations, S. aureus ATCC 29213) | mean FICI of combination with Chlopam ([2]; labelled antibiotic + Chlopam, mean of all pairwise combinations, S. aureus ATCC BAA-1717) | mean FICI of combination with Ramizol ([2]; labelled antibiotic + Ramizol, mean of all pairwise combinations, S. aureus ATCC BAA-1717)
4 to 8 µg/mL: minimum inhibitory concentration [MIC] (MRSA strains; MRSA strains with decreased susceptibility to vancomycin)
1.0: FICI of combination with Chlopam ([1]; Chlopam 0.003906 μg/mL + labelled antibiotic at MIC of same cell, S. aureus ATCC 29213) | FICI of combination with Chlopam ([1]; Chlopam 0.0078125 μg/mL + labelled antibiotic at MIC of same cell, S. aureus ATCC 29213) | FICI of combination with Chlopam ([1]; Chlopam 0.015625 μg/mL + labelled antibiotic at MIC of same cell, S. aureus ATCC 29213) | FICI of combination with Chlopam ([1]; Chlopam 0.25 μg/mL + labelled antibiotic at MIC of same cell, S. aureus ATCC 29213) | FICI of combination with Ramizol ([1]; Ramizol 0.015625 μg/mL + labelled antibiotic at MIC of same cell, S. aureus ATCC 29213) | FICI of combination with Ramizol ([1]; Ramizol 0.03125 μg/mL + labelled antibiotic at MIC of same cell, S. aureus ATCC 29213) | FICI of combination with Ramizol ([1]; Ramizol 0.0625 μg/mL + labelled antibiotic at MIC of same cell, S. aureus ATCC 29213) | FICI of combination with Ramizol ([1]; Ramizol 0.125 μg/mL + labelled antibiotic at MIC of same cell, S. aureus ATCC 29213) | mean FICI of combination with Chlopam ([1]; labelled antibiotic + Chlopam, mean of all pairwise combinations, S. aureus ATCC 29213) | FICI of combination with Chlopam ([2]; Chlopam 0.001953 μg/mL + labelled antibiotic at MIC of same cell, S. aureus ATCC BAA-1717) | FICI of combination with Chlopam ([2]; Chlopam 0.003906 μg/mL + labelled antibiotic at MIC of same cell, S. aureus ATCC BAA-1717) | FICI of combination with Chlopam ([2]; Chlopam 0.0078125 μg/mL + labelled antibiotic at MIC of same cell, S. aureus ATCC BAA-1717) | FICI of combination with Chlopam ([2]; Chlopam 0.015625 μg/mL + labelled antibiotic at MIC of same cell, S. aureus ATCC BAA-1717) | FICI of combination with Chlopam ([2]; Chlopam 0.5 μg/mL + labelled antibiotic at MIC of same line, S. aureus ATCC BAA-1717) | FICI of combination with Ramizol ([2]; Ramizol 0.015625 μg/mL + labelled antibiotic at MIC of same cell, S. aureus ATCC BAA-1717) | FICI of combination with Ramizol ([2]; Ramizol 0.03125 μg/mL + labelled antibiotic at MIC of same cell, S. aureus ATCC BAA-1717) | FICI of combination with Ramizol ([2]; Ramizol 0.0625 μg/mL + labelled antibiotic at MIC of same cell, S. aureus ATCC BAA-1717) | FICI of combination with Ramizol ([2]; Ramizol 0.125 μg/mL + labelled antibiotic at MIC of same line, S. aureus ATCC BAA-1717) | FICI of combination with Ramizol ([2]; Ramizol 4 μg/mL + labelled antibiotic at MIC of same cell, S. aureus ATCC BAA-1717)
